According to patent US7205382B2, “Peptides, the production and use thereof for binding immunoglobulins” (Fresenius Medical Care Affina GmbH, priority 2000, dated 2007):
Bridge positions count the residues as written; N and C are the ends. Square brackets hold non-standard residues; d marks the D form. Ends that are not written are not given here. cellulose = not defined here; βAla = NCCC(=O)O

Assays:
Format in all cases: binding
Parameters in all cases: key: No binding of immunoglobulin for the defined peptide variant, detection negative: 0; Binding of immunoglobulin for the defined peptide variant, detection positive: +
human IgG-Fc = assay: Cellulose-immobilized 13-mer peptide variants incubated with human IgG-Fc, anti-human IgG-AP detection; conditions: IgG-Fc 1 μg/ml in blocking buffer, 3 h room temperature
Method in brief: (§1)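 Binding is scored by NBT/BCIP precipitate from an AP-conjugated anti-human IgG probe on membrane-synthesized peptides. Targets are applied for 3 h at room temperature in 4% BSA/5% saccharose block: IgG-Fc at 1 μg/ml, serum at 1:10,000.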

[1] = system: immunoglobulins in human plasma; assay: Cellulose-immobilized 13-mer peptide variants incubated with human plasma, anti-human IgG-AP detection; conditions: human plasma as sample, diluted 1:10,000 in blocking buffer, 3 h room temperature
Method in brief: as §1

serum albumin = assay: Cellulose-immobilized 13-mer peptide variants incubated with serum albumin (negative control), anti-human IgG-AP detection; conditions: blocking buffer without addition, 3 h room temperature
Method in brief: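 Spot membrane, (βA)(βA) spacer; T-TBS pH 8.0 wash, block 5% saccharose/4% BSA. 3 h RT with IgG-Fc 1 μg/ml, serum 1:10,000, or block buffer only (specificity control). 3× wash, AP-anti-human IgG 1.2 μg/ml, NBT/BCIP in pH 9.5 buffer.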

| Substance | Result for incubation with human IgG-Fc (immunoglobulin binding detection) (human IgG-Fc) | Result for incubation with human plasma (immunoglobulin binding detection) [1] | Result for incubation with serum albumin (immunoglobulin binding detection) (serum albumin) |
| --- | --- | --- | --- |
| 06H: cellulose-bound 13-mer variant DCAWHHGELVWCT-(βA)(βA) (DCAWHHGELVWCT-{βAla-βAla-cellulose}; disulfide 2-12 (inferred); not fully specified (N-terminus); printed as DCAWHHGELVWCT-(βA)(βA); reading uncertain) | + | + | 0 |
| 12A: cellulose-bound 13-mer variant DCAWHLGELVWAT-(βA)(βA) (DCAWHLGELVWAT-{βAla-βAla-cellulose}; not fully specified; printed as DCAWHLGELVWAT-(βA)(βA); reading uncertain) | 0 | 0 | 0 |
| 05F: cellulose-bound 13-mer variant DCAWFLGELVWCT-(βA)(βA) (disulfide 2-12 (inferred); not fully specified (N-terminus, C-terminus); printed as DCAWFLGELVWCT-(βA)(βA); also: cellulose-bound) | 0 | 0 | 0 |
| 09I: cellulose-bound 13-mer variant DCAWHLGEIVWCT-(βA)(βA) (DCAWHLGEIVWCT-{βAla-βAla-cellulose}; disulfide 2-12 (inferred); reading uncertain; also: printed as DCAWHLGEIVWCT-(βA)(βA)) | 0 | 0 | 0 |
| 02F: cellulose-bound 13-mer variant DFAWHLGELVWCT-(βA)(βA) (DFAWHLGELVWCT[βAla][βAla]; not fully specified; printed as DFAWHLGELVWCT-(βA)(βA); also: cellulose-bound) | 0 | 0 | 0 |
| 06D: cellulose-bound 13-mer variant DCAWHDGELVWCT-(βA)(βA) (DCAWHDGELVWCT[βAla][βAla]; disulfide 2-12 (inferred); not fully specified (N-terminus); printed as DCAWHDGELVWCT-(βA)(βA); also: cellulose-bound) | + | 0 | 0 |

Other lines, results leading:

| Result for incubation with human IgG-Fc (immunoglobulin binding detection) (human IgG-Fc) | Result for incubation with human plasma (immunoglobulin binding detection) [1] | Result for incubation with serum albumin (immunoglobulin binding detection) (serum albumin) | Substance |
| --- | --- | --- | --- |
| 0 | 0 | 0 | 09C: cellulose-bound 13-mer variant DCAWHLGECVWCT-(βA)(βA) (DCAWHLGECVWCT-{βAla-βAla-cellulose}; not fully specified; printed as DCAWHLGECVWCT-(βA)(βA); cysteine pairing not given here; reading uncertain) |
| + | 0 | 0 | 01L: cellulose-bound 13-mer variant LCAWHLGELVWCT-(βA)(βA) (LCAWHLGELVWCT-{βAla-βAla-cellulose}; disulfide 2-12 (inferred); reading uncertain; also: printed as LCAWHLGELVWCT-(βA)(βA)) |
| 0 | 0 | 0 | 06W: cellulose-bound 13-mer variant DCAWHWGELVWCT-(βA)(βA) (DCAWHWGELVWCT-{βAla-βAla-cellulose}; disulfide 2-12 (inferred); not fully specified (N-terminus); printed as DCAWHWGELVWCT-(βA)(βA); reading uncertain) |
| 0 | 0 | 0 | 12E: cellulose-bound 13-mer variant DCAWHLGELVWET-(βA)(βA) (DCAWHLGELVWET-{βAla-βAla-cellulose}; not fully specified; printed as DCAWHLGELVWET-(βA)(βA); reading uncertain) |
| 0 | 0 | 0 | 09H: cellulose-bound 13-mer variant DCAWHLGEHVWCT-(βA)(βA) (DCAWHLGEHVWCT-{βAla-βAla-cellulose}; disulfide 2-12 (inferred); reading uncertain; also: printed as DCAWHLGEHVWCT-(βA)(βA)) |
| 0 | 0 | 0 | 07H: cellulose-bound 13-mer variant DCAWHLHELVWCT-(βA)(βA) (DCAWHLHELVWCT-{βAla-βAla-cellulose}; disulfide 2-12 (inferred); not fully specified (N-terminus); printed as DCAWHLHELVWCT-(βA)(βA); reading uncertain) |
| + | 0 | 0 | 06A: cellulose-bound 13-mer variant DCAWHAGELVWCT-(βA)(βA) (DCAWHAGELVWCT[βAla][βAla]; disulfide 2-12 (inferred); not fully specified (N-terminus); printed as DCAWHAGELVWCT-(βA)(βA); also: cellulose-bound) |
| 0 | 0 | 0 | 07L: cellulose-bound 13-mer variant DCAWHLLELVWCT-(βA)(βA) (DCAWHLLELVWCT-{βAla-βAla-cellulose}; disulfide 2-12 (inferred); not fully specified (N-terminus); printed as DCAWHLLELVWCT-(βA)(βA); reading uncertain) |
| 0 | 0 | 0 | 11G: cellulose-bound 13-mer variant DCAWHLGELVGCT-(βA)(βA) |
| 0 | 0 | 0 | 05G: cellulose-bound 13-mer variant DCAWGLGELVWCT-(βA)(βA) (disulfide 2-12 (inferred); not fully specified (N-terminus, C-terminus); printed as DCAWGLGELVWCT-(βA)(βA); also: cellulose-bound) |
